The results in this text go back to US7348350B2, “Pyrazolyl biphenyl carboxamides and the use thereof for controlling undesirable microorganisms” (Bayer CropScience AG, priority 2000, dated 2008).

One may read the chromatographic logP as lipophilicity estimated from chromatographic retention. A high value points to higher lipophilicity.

Structures are written as SMILES.

A short description of the first data set: logP by HPLC on reversed-phase column (C 18), EEC Directive 79/831 Annex V.A8. The class given is physicochemical. The following applies: reversed-phase HPLC column (C 18); acidic range, pH 2.3, 0.1% aqueous phosphoric acid and acetonitrile, 43° C. (marked a). How it is done: The logP values given in the Preparation Examples and Tables above were determined in accordance with EEC Directive 79/831 Annex V.A8 by HPLC (High Performance Liquid Chromatography) on a reversed-phase column (C 18). Temperature: 43° C.
In the acidic range, the determination was carried out at pH 2.3 using the mobile phases 0.1% aqueous phosphoric acid and acetonitrile; linear gradient from 10% acetonitrile to 90% acetonitrile (marked ^a) in the Table).
In the neutral range, the determination was carried out at pH 7.5 using the mobile phases 0.01 molar aqueous phosphate buffer solution and acetonitrile; linear gradient from 10% acetonitrile to 90% acetonitrile (marked ^b) in the Table).
Consider `CO/N=C/c1ccc(-c2ccccc2NC(=O)c2c(C)nn(C)c2F)c(Cl)c1` [Example 10], for which the chromatographic logP was determined as 3.26.

`Cc1nn(C)c(F)c1C(=O)Nc1ccccc1-c1ccc(/C=N/OCc2cccnc2)cc1` [Example 12] returned a chromatographic logP of 1.75.

`Cc1nn(C)c(F)c1C(=O)Nc1ccccc1-c1ccc(/C=N/OCc2ccccc2)cc1` [Example 13] registered a chromatographic logP of 4.02.

Take `Cc1nn(C)c(F)c1C(=O)Nc1c(F)cc(F)cc1-c1ccc(/C=N/OCc2ccccn2)cc1` [Example 15]: the chromatographic logP came out at 1.81.

`Cc1nn(C)c(F)c1C(=O)Nc1ccccc1-c1ccc(/C=N/OCc2ccncc2)cc1` [Example 16]: the chromatographic logP worked out at 1.72.

For the molecule `Cc1nn(C)c(F)c1C(=O)Nc1ccccc1-c1ccc(/C=N/OCc2ccccn2)cc1` [Example 17], the chromatographic logP stood at 1.89.

Take `Cc1nn(C)c(F)c1C(=O)Nc1c(F)cc(F)cc1-c1ccc(/C=N/OCc2cccnc2)cc1` [Example 18]: the chromatographic logP is 1.69.

The molecule `Cc1nn(C)c(F)c1C(=O)Nc1c(F)cc(F)cc1-c1ccc(/C=N/OCc2ccncc2)cc1` [Example 19] yielded a chromatographic logP of 1.6. The chromatographic logP values of the last two molecules are within 0.2 log units of each other.

As to `Cc1nn(C)c(F)c1C(=O)Nc1ccccc1-c1ccc(/C=N/OCCCl)cc1` [Example 25], the chromatographic logP turned out to be 3.38.

As for `CO/N=C/c1ccc(-c2ccccc2NC(=O)c2c(C)nn(C)c2F)cc1OC` [Example 27], the chromatographic logP is 3.15.

In the case of `CO/N=C/c1ccc(-c2cc(Cl)ccc2NC(=O)c2c(C)nn(C)c2F)cc1` [Example 28], the chromatographic logP was 3.67.

The molecule `CO/N=C/c1ccc(-c2ccc(C)cc2NC(=O)c2c(C)nn(C)c2F)cc1` [Example 31] showed a chromatographic logP of 3.34.

`CO/N=C/c1ccc(-c2ccc(OC)cc2NC(=O)c2c(C)nn(C)c2F)cc1` [Example 32] displayed a chromatographic logP of 3.1.

`CO/N=C/c1ccc(-c2ccc(Cl)cc2NC(=O)c2c(C)nn(C)c2F)cc1` [Example 33]: the chromatographic logP was found to be 3.79.

`CO/N=C/c1ccc(-c2cc(C)c(F)cc2NC(=O)c2c(C)nn(C)c2F)cc1` [Example 34] registered a chromatographic logP of 3.74.

The molecule `CO/N=C/c1ccc(-c2cc(Cl)cc(F)c2NC(=O)c2c(C)nn(C)c2F)cc1` [Example 35] displayed a chromatographic logP of 3.11.

With `CO/N=C/c1ccc(-c2cc(F)c(F)cc2NC(=O)c2c(C)nn(C)c2F)cc1` [Example 36], the chromatographic logP is 3.48.

For the molecule `CCO/N=C/c1ccc(-c2ccccc2NC(=O)c2c(C)nn(C)c2F)cc1OC` [Example 38], the chromatographic logP was 3.58.

As to `CO/N=C/c1ccc(-c2cc(C(F)(F)F)cc(Cl)c2NC(=O)c2c(C)nn(C)c2F)cc1` [Example 40], the chromatographic logP amounted to 4.63.

The molecule `CO/N=C/c1cccc(-c2ccc(Cl)cc2NC(=O)c2c(C)nn(C)c2F)c1` [Example 41] displayed a chromatographic logP of 3.89.

Consider `CO/N=C/c1cccc(-c2ccc(C(F)(F)F)cc2NC(=O)c2c(C)nn(C)c2F)c1` [Example 42], for which the chromatographic logP was 4.09.

`CO/N=C/c1cccc(-c2cc(OC(F)(F)F)ccc2NC(=O)c2c(C)nn(C)c2F)c1` [Example 43]: the chromatographic logP amounted to 4.06. The chromatographic logP values of the last two molecules are within 0.2 log units of each other.

As to `CO/N=C/c1cccc(-c2cc(C(F)(F)F)cc(Cl)c2NC(=O)c2c(C)nn(C)c2F)c1` [Example 44], the chromatographic logP stood at 4.63.

Consider `CO/N=C\c1cc(-c2ccccc2NC(=O)c2c(C)nn(C)c2F)ccc1/C=N/OC` [Example 48], for which the chromatographic logP came out at 3.25.

Molecule `CCC(C)O/N=C(/C)c1ccc(-c2ccccc2NC(=O)c2c(C)nn(C)c2F)cc1` (stereo not shown) [Example 51] registered a chromatographic logP of 4.67.

For the molecule `Cc1nn(C)c(F)c1C(=O)Nc1ccccc1-c1ccc(/C=N\O)cc1` [Example 53], the chromatographic logP came out at 2.24.

Take `CCCCO/N=C\c1ccc(-c2ccccc2NC(=O)c2c(C)nn(C)c2F)cc1` [Example 55]: the chromatographic logP was determined as 4.33.

Staying with this data set, now noted: reversed-phase HPLC column (C 18); neutral range, pH 7.5, 0.01 molar aqueous phosphate buffer and acetonitrile, 43° C. (marked b).
`Cc1nn(C)c(F)c1C(=O)Nc1c(F)cc(F)cc1-c1ccc(/C=N/OCc2ccccc2)cc1` [Example 14] registered a chromatographic logP of 3.68.
